Here are results for 16 molecules from patent US8163909B2, “Substituted hydroxyethyl amine compounds as beta-secretase modulators and methods of use” (Amgen Inc., priority 2007, dated 2012).

In data set [1] the target is Beta Secretase enzyme (BACE) (Homo sapiens, UniProt P56817). Description: In vitro enzymatic BACE FRET (fluorescence resonance energy transfer) assay.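 For all read-outs here: fluorescence read after 1 h with 50 nM quenched peptide substrate spanning the BACE cleavage site, in pH 4.2 acetate buffer containing 10% DMSO and nonionic detergent.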 It counts as biochemical. As to conditions: read-out: BACE1 FRET assay; for pIC50: BACE enzyme assay IC50; for IC50: BACE enzyme assay, IC50's in uM.
The subject of data set [2] is Aβ40 in conditioned medium of cells stably expressing Amyloid Precursor Protein (APP). As to the kind of experiment: In vitro BACE cell-based assay (Aβ40 in conditioned medium, sandwich ELISA).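 For all read-outs here: compounds added as a dilution series, secreted peptide quantified by europium time-resolved fluorescence readout, potency fitted from percent of control versus compound concentration.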 The conditions noted are these: Homo sapiens, read-out: HEK cell assay; for pIC50: HEK293, HEK cell-based assay IC50; for IC50: HEK293, HEK cell-based assay, IC50's in uM.
The next data set deals with CYP3A4 (CYP3A) (Homo sapiens, UniProt P08684). Description: in vitro. The conditions noted are these: microsomes, pH 7.4.
Data set [3] is described as follows: Microsomal stability assay, rat liver microsomes.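 Note: rat liver microsomes (0.25 mg/mL) with about 1 µM compound plus 1 mM NADPH, pH 7.4, 37 °C for 30 min, parent left measured by LC-MS/MS against 0 min.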 For orientation: Liver microsomes are a subcellular fraction often used to study metabolism.
Data set [4] is described as follows: Microsomal stability assay, human liver microsomes.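 Note: pooled human liver microsomes at 0.25 mg/mL with 1 µM compound and NADPH at 37 °C, pH 7.4, for 30 min, unchanged parent quantified by LC-MS/MS against the 0 min sample.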
The target of another data set is CYP2D6 (Homo sapiens, UniProt P10635). Description: CYP2D6 inhibition assay (bufuralol, pooled human liver microsomes). The conditions noted are these: 2D6 IC50 (uM).

pIC50: −log10 of the molar value. Where two headings read alike, the source gives them in different places.

Sequence of Beta Secretase enzyme (BACE) (P56817 46-501): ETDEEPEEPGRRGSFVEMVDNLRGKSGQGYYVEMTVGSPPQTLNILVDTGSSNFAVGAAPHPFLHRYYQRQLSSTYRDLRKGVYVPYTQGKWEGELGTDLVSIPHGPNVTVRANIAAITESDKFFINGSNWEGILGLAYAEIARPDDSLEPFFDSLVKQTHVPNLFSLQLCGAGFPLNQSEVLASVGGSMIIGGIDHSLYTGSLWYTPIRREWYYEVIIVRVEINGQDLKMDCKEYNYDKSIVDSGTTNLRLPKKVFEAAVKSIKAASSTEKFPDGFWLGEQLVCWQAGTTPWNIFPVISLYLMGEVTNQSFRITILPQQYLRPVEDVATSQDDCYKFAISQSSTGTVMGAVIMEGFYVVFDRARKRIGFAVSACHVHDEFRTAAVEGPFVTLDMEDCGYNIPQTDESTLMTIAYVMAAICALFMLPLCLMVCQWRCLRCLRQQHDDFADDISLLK
Sequence of CYP3A4 (CYP3A) (P08684 2-503): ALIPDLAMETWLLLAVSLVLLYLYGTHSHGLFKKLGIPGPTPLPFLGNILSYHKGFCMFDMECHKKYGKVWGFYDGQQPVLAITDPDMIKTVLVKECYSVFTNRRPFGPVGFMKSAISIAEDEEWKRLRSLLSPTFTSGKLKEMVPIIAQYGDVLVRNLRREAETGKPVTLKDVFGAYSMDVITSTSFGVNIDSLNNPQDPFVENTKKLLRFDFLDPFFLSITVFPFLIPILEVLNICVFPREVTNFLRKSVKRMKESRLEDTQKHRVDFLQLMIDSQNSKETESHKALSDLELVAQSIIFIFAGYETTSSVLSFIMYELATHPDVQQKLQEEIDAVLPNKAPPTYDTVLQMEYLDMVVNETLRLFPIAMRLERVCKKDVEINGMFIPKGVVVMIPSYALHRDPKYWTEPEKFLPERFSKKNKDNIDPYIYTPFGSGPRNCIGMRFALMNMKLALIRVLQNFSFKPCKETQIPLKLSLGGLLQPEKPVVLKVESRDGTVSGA
Sequence of CYP2D6 (P10635 whole entry): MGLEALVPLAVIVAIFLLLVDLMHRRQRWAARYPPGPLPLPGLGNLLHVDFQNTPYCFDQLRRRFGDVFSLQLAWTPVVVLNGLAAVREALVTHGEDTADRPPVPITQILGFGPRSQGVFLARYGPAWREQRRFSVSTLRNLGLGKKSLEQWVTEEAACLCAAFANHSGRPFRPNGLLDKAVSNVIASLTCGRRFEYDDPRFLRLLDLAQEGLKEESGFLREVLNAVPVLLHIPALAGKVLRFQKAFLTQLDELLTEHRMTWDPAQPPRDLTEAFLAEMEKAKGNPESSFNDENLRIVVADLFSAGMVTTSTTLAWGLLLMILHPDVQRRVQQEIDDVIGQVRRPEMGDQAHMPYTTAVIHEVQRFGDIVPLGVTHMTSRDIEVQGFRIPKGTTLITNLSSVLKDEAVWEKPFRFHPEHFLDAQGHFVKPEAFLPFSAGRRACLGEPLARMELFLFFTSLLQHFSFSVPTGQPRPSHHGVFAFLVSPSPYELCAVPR

Take `CO[C@H](C)C(=O)N[C@@H](Cc1cc(F)cc(-c2nccs2)c1)[C@H](O)CN[C@H]1CC2(CCC2)Oc2ncc(CC(C)(C)C)cc21` [compound 738, (2R)-N-((1S,2R)-3-(((4′S)-6′-(2,2-dimethylpropyl)-3′,4′-dihydrospiro[cyclobutane-1,2′-pyrano[2,3-b]pyridin]-4′-yl)amino)-1-(3-fluoro-5-(1,3-thiazol-2-yl)benzyl)-2-hydroxypropyl)-2-methoxypropanamide]: the pIC50 in data set [1] was 8.10; in data set [2], 8.00; against CYP3A4 (CYP3A) it was at least 7.52. Further, in data set [3] (rat liver microsomes), the “RLM” value amounted to 59 µL/min/mg. Also, the “HLM” value in data set [4] (human liver microsomes) stood at 50 µL/min/mg. The IC50 on CYP2D6 (CYP2D6 inhibition) came to 0.6 µM.
Consider `CN1CCO[C@@H](C(=O)N[C@@H](Cc2ccc(F)cc2)[C@H](O)CN[C@H]2CC3(CCC3)Oc3ncc(CC(C)(C)C)cc32)C1` [compound 739], for which the pIC50 in data set [1] was 7.19; in data set [2], 8.10; at CYP3A4 (CYP3A) it was 6.10. For the same molecule, in data set [3] (rat liver microsomes), the “RLM” value is 239 µL/min/mg. For the same molecule, in data set [4] (human liver microsomes), the “HLM” value came to 266 µL/min/mg. The IC50 against CYP2D6 (CYP2D6 inhibition) came to 6.7 µM.
With `CO[C@H](C)C(=O)N[C@@H](Cc1ccc2c(c1)OCO2)[C@H](O)CN[C@H]1CC2(CCC2)Oc2ncc(CC(C)(C)F)cc21` [compound 741], the results for the pIC50 (in data set [1]; in data set [2]; on CYP3A4 (CYP3A)) were 6.45, 6.48 and at least 7.52, respectively. Moreover, the “RLM” value in data set [3] (rat liver microsomes) worked out at 76 µL/min/mg. In data set [4] (human liver microsomes), the “HLM” value stood at 25 µL/min/mg. For the same molecule, at CYP2D6 (CYP2D6 inhibition), the IC50 is 5 µM.
On to `CO[C@H](C)C(=O)N[C@@H](Cc1cc(F)cc(-c2nccs2)c1)[C@H](O)CN[C@H]1CC2(CCC2)Oc2ncc(CC(C)(C)F)cc21` [compound 742], for which the pIC50 in data set [1] was 7.08; in data set [2], 7.35; against CYP3A4 (CYP3A) it was 6.15. Besides, the “RLM” value in data set [3] (rat liver microsomes) was 42 µL/min/mg. The “HLM” value in data set [4] (human liver microsomes) was found to be 39.5 µL/min/mg. Moreover, the IC50 against CYP2D6 (CYP2D6 inhibition) came to 0.95 µM.
Turning to `CN1CCO[C@H](C(=O)N[C@@H](Cc2ccc(F)cc2)[C@H](O)CN[C@H]2CC3(CCC3)Oc3ncc(CC(C)(C)C)cc32)C1` [compound 744], the pIC50 is 6.43 in data set [1], 7.12 in data set [2] and 6.05 against CYP3A4 (CYP3A). In addition, the “RLM” value in data set [3] (rat liver microsomes) came to 266 µL/min/mg. Also, the “HLM” value in data set [4] (human liver microsomes) turned out to be 333 µL/min/mg. This molecule also returned an IC50 at CYP2D6 (CYP2D6 inhibition) of 11.2 µM.
Consider `COCC(=O)N[C@@H](Cc1ccc(F)cc1)[C@H](O)CN[C@H]1CC(C)(C)Oc2c1cc(Br)c1c2OCO1` [compound 745], for which the pIC50 in data set [1] is 5.24; in data set [2], 6.64; on CYP3A4 (CYP3A), 6.30. Moreover, the “RLM” value in data set [3] (rat liver microsomes) amounted to 177 µL/min/mg. Besides, in data set [4] (human liver microsomes), the “HLM” value came out at 179 µL/min/mg. Besides, on CYP2D6 (CYP2D6 inhibition), the IC50 stood at 3.1 µM.
In the case of `COCC(=O)N[C@@H](Cc1cc(F)cc(F)c1)[C@H](O)CN[C@H]1CC(C)(C)Oc2c1cc(Br)c1c2OCO1` [compound 746], the pIC50 in data set [1] was 6.56; in data set [2], 6.73; against CYP3A4 (CYP3A), 6.70. For the same molecule, the “RLM” value in data set [3] (rat liver microsomes) is 144 µL/min/mg. The “HLM” value in data set [4] (human liver microsomes) was found to be 150 µL/min/mg. Further, the IC50 against CYP2D6 (CYP2D6 inhibition) worked out at 3.8 µM.
On to `COCC(=O)N[C@@H](Cc1cc(F)cc(F)c1)[C@H](O)CN[C@H]1CC(C)(C)Oc2c1cc(CC(C)C)c1c2OCO1` [compound 748], for which the pIC50 in data set [1] was 7.89; in data set [2], 6.90; against CYP3A4 (CYP3A), 7.00. Besides, the “RLM” value in data set [3] (rat liver microsomes) came out at 179 µL/min/mg. Moreover, the “HLM” value in data set [4] (human liver microsomes) was 190 µL/min/mg. In addition, the IC50 on CYP2D6 (CYP2D6 inhibition) worked out at 8.2 µM.
As to `COCC(=O)N[C@@H](Cc1cc(F)cc(-c2nccs2)c1)[C@H](O)CN[C@H]1CC2(CCC2)Oc2ncc(C3CC3)cc21` [compound 749], the values for the pIC50 (in data set [1]; in data set [2]; against CYP3A4 (CYP3A)) were 7.34, 7.13 and 6.52, respectively. Further, the “RLM” value in data set [3] (rat liver microsomes) was found to be 51 µL/min/mg. Moreover, the “HLM” value in data set [4] (human liver microsomes) was 59 µL/min/mg. The IC50 at CYP2D6 (CYP2D6 inhibition) turned out to be 1.6 µM.
`CO[C@H](C)C(=O)N[C@@H](Cc1cc(F)cc(-c2nccs2)c1)[C@H](O)CN[C@H]1CC2(CCC2)Oc2c1cc(CC(C)C)nc2Cl` [compound 752]: the pIC50 is 8.05 in data set [1], 7.17 in data set [2] and 7.00 at CYP3A4 (CYP3A). The “RLM” value in data set [3] (rat liver microsomes) is 137 µL/min/mg. For the same molecule, the “HLM” value in data set [4] (human liver microsomes) was determined as 166 µL/min/mg. The molecule further yielded an IC50 against CYP2D6 (CYP2D6 inhibition) of 1.3 µM.
With `COC(OC)C(=O)N[C@@H](Cc1ccc2c(c1)OCO2)[C@H](O)CN[C@H]1CC2(CCC2)Oc2ncc(CC(C)C)cc21` [compound 754, N-((1S,2R)-1-(1,3-benzodioxol-5-ylmethyl)-2-hydroxy-3-(((4′S)-6′-(2-methylpropyl)-3′,4′-dihydrospiro[cyclobutane-1,2′-pyrano[2,3-b]pyridin]-4′-yl)amino)propyl)-2,2-dimethoxyacetamide], the pIC50 in data set [1] was 7.43; in data set [2], 7.27; against CYP3A4 (CYP3A) it was 7.00. The “RLM” value in data set [3] (rat liver microsomes) came to 86 µL/min/mg. Also, in data set [4] (human liver microsomes), the “HLM” value amounted to 29 µL/min/mg. On CYP2D6 (CYP2D6 inhibition), this molecule gave an IC50 of 3.5 µM.
Take `Cc1nc(CN2CCO[C@@H](C(=O)N[C@@H](Cc3ccc(F)cc3)[C@H](O)CN[C@H]3CC4(CCC4)Oc4ncc(CC(C)(C)C)cc43)C2)cs1` [compound 755]: the IC50 amounted to 0.012 µM in data set [1], 0.007 µM in data set [2] and 3.3 µM against CYP2D6 (CYP enzyme inhibition). The pIC50 against CYP3A4 (CYP3A) is 6.52. The “RLM” value in data set [3] (rat liver microsomal data) was determined as 191 µL/min/mg. Moreover, the “HLM” value in data set [4] (human liver microsomal data) was 522 µL/min/mg.
With `COCC(=O)N[C@@H](Cc1cccc(-c2ncc(C)s2)c1)[C@H](O)CN[C@H]1CC2(CCC2)Oc2ncc(CC(C)(C)C)cc21` [compound 759, N-((1S,2R)-3-(((4′S)-6′-(2,2-dimethylpropyl)-3′,4′-dihydrospiro[cyclobutane-1,2′-pyrano[2,3-b]pyridin]-4′-yl)amino)-2-hydroxy-1-(3-(5-methyl-1,3-thiazol-2-yl)benzyl)propyl)-2-methoxyacetamide], the IC50 turned out to be 0.021 µM in data set [1], 0.071 µM in data set [2] and 1.5 µM against CYP2D6 (CYP enzyme inhibition). The pIC50 on CYP3A4 (CYP3A) was 6.52. For the same molecule, in data set [3] (rat liver microsomal data), the “RLM” value worked out at 399 µL/min/mg. In data set [4] (human liver microsomal data), the “HLM” value is 436 µL/min/mg.
For `CO[C@H](C)C(=O)N[C@@H](Cc1ccc(F)c(-c2nccs2)c1)[C@H](O)CN[C@H]1CC2(CCC2)Oc2ncc(CC(C)(C)F)cc21` [compound 760], the IC50 in data set [1] was 0.031 µM; in data set [2] it was 0.1 µM; on CYP2D6 (CYP enzyme inhibition), 0.8 µM. At CYP3A4 (CYP3A), this molecule had a pIC50 of 6.52. For the same molecule, the “RLM” value in data set [3] (rat liver microsomal data) worked out at 31 µL/min/mg. Moreover, the “HLM” value in data set [4] (human liver microsomal data) amounted to 26 µL/min/mg.
Take `Cc1nc(CN2CCO[C@H](C(=O)N[C@@H](Cc3ccc(F)cc3)[C@H](O)CN[C@H]3CC4(CCC4)Oc4ncc(CC(C)(C)C)cc43)C2)cs1` [compound 762]: the IC50 in data set [1] was 0.037 µM; in data set [2] it was 0.037 µM; on CYP2D6 (CYP enzyme inhibition) it was 2.6 µM. Also, the pIC50 on CYP3A4 (CYP3A) was 6.52. Also, in data set [3] (rat liver microsomal data), the “RLM” value worked out at 522 µL/min/mg. In addition, the “HLM” value in data set [4] (human liver microsomal data) amounted to 297 µL/min/mg.
Consider `COCC(=O)N[C@@H](Cc1cccc(F)c1)[C@H](O)CN[C@H]1CC2(CCC2)Oc2nc3c(cc21)[C@H](C(C)C)CO3` [compound 763], for which the IC50 stood at 2.5 µM in data set [1], 1.3 µM in data set [2] and 2 µM against CYP2D6 (CYP enzyme inhibition). Further, the pIC50 on CYP3A4 (CYP3A) is 5.70. Besides, the “RLM” value in data set [3] (rat liver microsomal data) stood at 399 µL/min/mg. The “HLM” value in data set [4] (human liver microsomal data) stood at 399 µL/min/mg.
